Measurements reported in article PMC5218480 (PLoS ONE, 2017).

Test system: MV-4-11 cells
Assay: Gene expression microarray analysis (Affymetrix PrimeView) and GSEA
Format: cell-based, human
Parameters: RFU PODN (11730768_x_at) / Fold change /veh PODN (11730768_x_at) / RFU LINC00158 (11744669_a_at) / Fold change /veh LINC00158 (11744669_a_at) / RFU DUSP10 (11751237_a_at) / Fold change /veh DUSP10 (11751237_a_at) / RFU ID3 (11757404_x_at) / Fold change /veh ID3 (11757404_x_at) / RFU PLEKHG5 (11737974_s_at) / Fold change /veh PLEKHG5 (11737974_s_at) / RFU LRRC4B (11730491_at) / Fold change /veh LRRC4B (11730491_at) / RFU GIMAP4 (11747438_a_at) / Fold change /veh GIMAP4 (11747438_a_at) / RFU KRT8 (11758183_x_at) / Fold change /veh KRT8 (11758183_x_at) / RFU CNN1 (11734310_a_at) / Fold change /veh CNN1 (11734310_a_at) / RFU VPS37D (11726825_at) / Fold change /veh VPS37D (11726825_at) / RFU C10orf10 (11716522_x_at) / Fold change /veh C10orf10 (11716522_x_at) / RFU KIR2DL2 /// KIR2DL4 /// KIR2DL5A /// KIR2DL5B /// KIR2DS1 /// KIR2DS2 /// KIR2DS3 /// KIR2DS4 /// KIR3DL3 /// KIR3DL3 /// KIR3DS1 (11738374_at) / Fold change /veh KIR2DL2 /// KIR2DL4 /// KIR2DL5A /// KIR2DL5B /// KIR2DS1 /// KIR2DS2 /// KIR2DS3 /// KIR2DS4 /// KIR3DL3 /// KIR3DL3 /// KIR3DS1 (11738374_at) / RFU C1QL1 (11718748_at) / Fold change /veh C1QL1 (11718748_at) / RFU TMPRSS4 (11747572_a_at) / Fold change /veh TMPRSS4 (11747572_a_at) / RFU HAMP (11756126_x_at) / Fold change /veh HAMP (11756126_x_at) / RFU RNFT2 (11725882_a_at) / Fold change /veh RNFT2 (11725882_a_at) / RFU NR4A2 (11747474_a_at) / Fold change /veh NR4A2 (11747474_a_at) / RFU ABCC12 (11746883_a_at) / Fold change /veh ABCC12 (11746883_a_at) / RFU TMEM136 (11760407_x_at) / Fold change /veh TMEM136 (11760407_x_at) / RFU CLDN22 /// WWC2 (11732394_at) / Fold change /veh CLDN22 /// WWC2 (11732394_at) / RFU HLA-DPB1 (11760878_x_at) / Fold change /veh HLA-DPB1 (11760878_x_at) / RFU SPINT1 (11716480_a_at) / Fold change /veh SPINT1 (11716480_a_at) / RFU GAP43 (11754022_s_at) / Fold change /veh GAP43 (11754022_s_at) / RFU A4GNT (11735810_at) / Fold change /veh A4GNT (11735810_at) / RFU PRB3 (11715151_x_at) / Fold change /veh PRB3 (11715151_x_at) / RFU TUBB4B (11761932_at) / Fold change /veh TUBB4B (11761932_at) / RFU CAPN14 (11732068_a_at) / Fold change /veh CAPN14 (11732068_a_at) / RFU TMCC2 (11721928_a_at) / Fold change /veh TMCC2 (11721928_a_at) / RFU IRGQ (11745062_a_at) / Fold change /veh IRGQ (11745062_a_at) / RFU FAM174B (11720279_a_at) / Fold change /veh FAM174B (11720279_a_at) / RFU TMPRSS4 (11748680_a_at) / Fold change /veh TMPRSS4 (11748680_a_at) / RFU FAM212B (11763350_a_at) / Fold change /veh FAM212B (11763350_a_at) / RFU PLEKHG5 (11743358_a_at) / Fold change /veh PLEKHG5 (11743358_a_at) / RFU ZSCAN30 (11745921_a_at) / Fold change /veh ZSCAN30 (11745921_a_at) / RFU CMKLR1 (11741424_a_at) / Fold change /veh CMKLR1 (11741424_a_at) / RFU LOC101060620 /// MAPK8IP1 (11723275_at) / Fold change /veh LOC101060620 /// MAPK8IP1 (11723275_at) / RFU SPTSSB (11747773_x_at) / Fold change /veh SPTSSB (11747773_x_at) / RFU PRSS12 (11739890_at) / Fold change /veh PRSS12 (11739890_at) / RFU BIN1 (11741810_x_at) / Fold change /veh BIN1 (11741810_x_at) / RFU WNT11 (11732464_a_at) / Fold change /veh WNT11 (11732464_a_at) / RFU C10orf10 (11716521_a_at) / Fold change /veh C10orf10 (11716521_a_at) / RFU C5orf56 (11738089_at) / Fold change /veh C5orf56 (11738089_at) / RFU CYB561 (11721691_x_at) / Fold change /veh CYB561 (11721691_x_at) / RFU ANKRD19P (11752326_a_at) / Fold change /veh ANKRD19P (11752326_a_at) / RFU OR2T12 /// OR2T33 /// OR2T8 (11738714_s_at) / Fold change /veh OR2T12 /// OR2T33 /// OR2T8 (11738714_s_at) / RFU VCAN (11748164_a_at) / Fold change /veh VCAN (11748164_a_at) / RFU JSRP1 (11732532_at) / Fold change /veh JSRP1 (11732532_at) / RFU KRTAP10-11 (11738290_x_at) / Fold change /veh KRTAP10-11 (11738290_x_at) / RFU MYO3A (11730013_a_at) / Fold change /veh MYO3A (11730013_a_at) / RFU EBF3 (11725865_a_at) / Fold change /veh EBF3 (11725865_a_at) / RFU CAMK2N1 (11719241_x_at) / Fold change /veh CAMK2N1 (11719241_x_at) / RFU C5orf56 (11738088_a_at) / Fold change /veh C5orf56 (11738088_a_at) / RFU OLFML3 (11715873_a_at) / Fold change /veh OLFML3 (11715873_a_at) / RFU LOC100653217 /// NTM (11731650_a_at) / Fold change /veh LOC100653217 /// NTM (11731650_a_at) / RFU MAPK11 (11762145_a_at) / Fold change /veh MAPK11 (11762145_a_at) / RFU FIZ1 (11724087_x_at) / Fold change /veh FIZ1 (11724087_x_at) / RFU OASL (11726364_x_at) / Fold change /veh OASL (11726364_x_at) / RFU SOX15 (11748057_x_at) / Fold change /veh SOX15 (11748057_x_at) / RFU CD79A (11719716_a_at) / Fold change /veh CD79A (11719716_a_at) / RFU HIST1H1D (11736915_at) / Fold change /veh HIST1H1D (11736915_at) / RFU CASKIN2 (11723855_a_at) / Fold change /veh CASKIN2 (11723855_a_at) / RFU LOC730098 (11760151_x_at) / Fold change /veh LOC730098 (11760151_x_at) / RFU OR4N2 (11742367_at) / Fold change /veh OR4N2 (11742367_at) / RFU PRRT2 (11749266_a_at) / Fold change /veh PRRT2 (11749266_a_at) / RFU SNX32 (11753110_a_at) / Fold change /veh SNX32 (11753110_a_at) / RFU CDHR5 (11726645_a_at) / Fold change /veh CDHR5 (11726645_a_at) / RFU RCAN1 (11760418_a_at) / Fold change /veh RCAN1 (11760418_a_at) / RFU FAM167A (11723789_a_at) / Fold change /veh FAM167A (11723789_a_at) / RFU FAM26E (11764081_at) / Fold change /veh FAM26E (11764081_at) / RFU ISYNA1 (11749810_s_at) / Fold change /veh ISYNA1 (11749810_s_at) / RFU ACY1 (11761880_at) / Fold change /veh ACY1 (11761880_at) / RFU 11764098_at / Fold change /veh 11764098_at / RFU SAMD14 (11745864_x_at) / Fold change /veh SAMD14 (11745864_x_at) / RFU NPB (11741838_a_at) / Fold change /veh NPB (11741838_a_at) / RFU TMPRSS6 (11731388_a_at) / Fold change /veh TMPRSS6 (11731388_a_at) / RFU KRTAP10-2 (11738614_at) / Fold change /veh KRTAP10-2 (11738614_at) / RFU ARHGAP8 /// PRR5-ARHGAP8 (11727945_x_at) / Fold change /veh ARHGAP8 /// PRR5-ARHGAP8 (11727945_x_at) / RFU KRTAP5-7 /// NADSYN1 (11734609_at) / Fold change /veh KRTAP5-7 /// NADSYN1 (11734609_at) / RFU RASL12 (11751679_a_at) / Fold change /veh RASL12 (11751679_a_at) / RFU CDKN2B (11736163_a_at) / Fold change /veh CDKN2B (11736163_a_at) / RFU PRF1 (11729649_at) / Fold change /veh PRF1 (11729649_at) / RFU, ZNF638 /// ZNF638-IT1 / Fold change vs veh, ZNF638 /// ZNF638-IT1 / RFU, PANK3 / Fold change vs veh, PANK3 / RFU, SH3YL1 / Fold change vs veh, SH3YL1 / RFU, ZEB2 / Fold change vs veh, ZEB2 / RFU, NRIP1 / Fold change vs veh, NRIP1 / RFU, PTTG1IP / Fold change vs veh, PTTG1IP / RFU, CAPN2 / Fold change vs veh, CAPN2 / RFU, MED14 / Fold change vs veh, MED14 / RFU, SNORA58 / Fold change vs veh, SNORA58 / RFU, C1orf63 / Fold change vs veh, C1orf63 / RFU, LRRFIP1 / Fold change vs veh, LRRFIP1 / RFU, NDUFAF7 / Fold change vs veh, NDUFAF7 / RFU, SLC12A2 / Fold change vs veh, SLC12A2 / RFU, IBTK / Fold change vs veh, IBTK / RFU, ESF1 / Fold change vs veh, ESF1 / Fold change vs veh, TMEM50B / RFU, TAOK1 / Fold change vs veh, TAOK1 / RFU, ACBD3 / Fold change vs veh, ACBD3 / RFU, TMA16 / Fold change vs veh, TMA16 / RFU, RWDD3 / Fold change vs veh, RWDD3 / RFU, BCAT1 / Fold change vs veh, BCAT1 / RFU, EDEM3 / Fold change vs veh, EDEM3 / RFU, TMEM33 / Fold change vs veh, TMEM33 / RFU, WDR75 / Fold change vs veh, WDR75 / RFU, AHCTF1 / Fold change vs veh, AHCTF1 / RFU, TFRC / Fold change vs veh, TFRC / RFU, ZDHHC17 / Fold change vs veh, ZDHHC17 / RFU, NOM1 / Fold change vs veh, NOM1 / RFU, ARL8B / Fold change vs veh, ARL8B / RFU, ZBTB11 / Fold change vs veh, ZBTB11 / RFU, TAMM41 / Fold change vs veh, TAMM41 / RFU, KIAA1704 /// LOC100996395 / Fold change vs veh, KIAA1704 /// LOC100996395 / RFU, ING1 / Fold change vs veh, ING1 / RFU, TRMT61B / Fold change vs veh, TRMT61B / RFU, FUBP3 / Fold change vs veh, FUBP3 / RFU, TP53 / Fold change vs veh, TP53 / RFU, TNKS2 / Fold change vs veh, TNKS2 / RFU, ZFP14 / Fold change vs veh, ZFP14 / RFU, ACTR2 / Fold change vs veh, ACTR2 / RFU, PPP3R1 / Fold change vs veh, PPP3R1 / RFU, PIK3R1 / Fold change vs veh, PIK3R1 / RFU, HNRNPA1 / Fold change vs veh, HNRNPA1 / RFU, RNF170 / Fold change vs veh, RNF170 / RFU, ZNF28 / Fold change vs veh, ZNF28 / RFU, RNGTT / Fold change vs veh, RNGTT / RFU, OGT / Fold change vs veh, OGT / RFU, BRD1 / Fold change vs veh, BRD1 / RFU, MARS / Fold change vs veh, MARS / RFU, ZNF655 / Fold change vs veh, ZNF655 / RFU, FAHD1 / Fold change vs veh, FAHD1 / RFU, BDP1 / Fold change vs veh, BDP1 / RFU, LRRCC1 / Fold change vs veh, LRRCC1 / RFU, ARID1A / Fold change vs veh, ARID1A / RFU, ZNF146 / Fold change vs veh, ZNF146 / RFU, ZNF330 / Fold change vs veh, ZNF330 / RFU, GPN3 / Fold change vs veh, GPN3 / RFU, C9orf123 / Fold change vs veh, C9orf123 / RFU, N4BP2L2 / Fold change vs veh, N4BP2L2 / RFU, ARFIP1 / Fold change vs veh, ARFIP1 / RFU, FAM179B / Fold change vs veh, FAM179B / RFU, BCL10 / Fold change vs veh, BCL10 / RFU, UHRF1BP1L / Fold change vs veh, UHRF1BP1L / RFU, BET1 / Fold change vs veh, BET1 / RFU, CNOT2 / Fold change vs veh, CNOT2 / RFU, ZNF268 / Fold change vs veh, ZNF268 / Fold change vs veh, ZNF507 / RFU, DGCR2 / Fold change vs veh, DGCR2 / RFU, WDSUB1 / Fold change vs veh, WDSUB1 / Fold change vs veh, HSP90B1 /// MIR3652 / RFU, ADSS / Fold change vs veh, ADSS / RFU, GK / Fold change vs veh, GK / RFU, ZNF148 / Fold change vs veh, ZNF148 / RFU, TAF9 / Fold change vs veh, TAF9 / RFU, SLC1A5 / Fold change vs veh, SLC1A5 / RFU, SLMO2 / Fold change vs veh, SLMO2 / RFU, ABCC4 / Fold change vs veh, ABCC4 / RFU, LOC101060439 /// RAP1B / Fold change vs veh, LOC101060439 /// RAP1B / RFU, RFX7 / Fold change vs veh, RFX7 / RFU, GTPBP10 / Fold change vs veh, GTPBP10 / RFU, CNEP1R1 / Fold change vs veh, CNEP1R1 / RFU, BIVM-ERCC5 /// ERCC5 / Fold change vs veh, BIVM-ERCC5 /// ERCC5 / RFU, ILF3 / Fold change vs veh, ILF3 / RFU 11762660_at / Fold change /veh 11762660_at / RFU VCAN (11757783_s_at) / Fold change /veh VCAN (11757783_s_at) / RFU DDX43 (11728927_at) / Fold change /veh DDX43 (11728927_at) / RFU KRT8 (11758188_x_at) / Fold change /veh KRT8 (11758188_x_at) / RFU NKD1 (11759106_at) / Fold change /veh NKD1 (11759106_at) / RFU SRD5A1 (11742802_a_at) / Fold change /veh SRD5A1 (11742802_a_at) / RFU TPSAB1 /// TPSB2 (11721975_s_at) / Fold change /veh TPSAB1 /// TPSB2 (11721975_s_at) / RFU GSTM3 (11746129_a_at) / Fold change /veh GSTM3 (11746129_a_at) / RFU IL23R (11737362_x_at) / Fold change /veh IL23R (11737362_x_at) / RFU TMEM51 (11727254_a_at) / Fold change /veh TMEM51 (11727254_a_at) / RFU PIWIL2 (11732686_x_at) / Fold change /veh PIWIL2 (11732686_x_at) / RFU ORM1 (11744905_x_at) / Fold change /veh ORM1 (11744905_x_at) / RFU CCDC152 (11743942_at) / Fold change /veh CCDC152 (11743942_at) / RFU ECM1 (11717891_a_at) / Fold change /veh ECM1 (11717891_a_at) / RFU IL23R (11748794_a_at) / Fold change /veh IL23R (11748794_a_at) / RFU TNFAIP8L3 (11732012_x_at) / Fold change /veh TNFAIP8L3 (11732012_x_at) / RFU MBOAT4 (11741988_at) / Fold change /veh MBOAT4 (11741988_at) / RFU 11764193_at / Fold change /veh 11764193_at / RFU TMEM53 (11763286_at) / Fold change /veh TMEM53 (11763286_at) / RFU MAGEB2 (11727129_at) / Fold change /veh MAGEB2 (11727129_at) / RFU TMEM200A (11744735_a_at) / Fold change /veh TMEM200A (11744735_a_at) / RFU CCDC152 (11751479_a_at) / Fold change /veh CCDC152 (11751479_a_at) / RFU FAM211A (11726209_a_at) / Fold change /veh FAM211A (11726209_a_at) / RFU RGS16 (11746705_a_at) / Fold change /veh RGS16 (11746705_a_at) / RFU VCAN (11755009_s_at) / Fold change /veh VCAN (11755009_s_at) / RFU RHOB (11743442_s_at) / Fold change /veh RHOB (11743442_s_at) / RFU RGS16 (11720943_a_at) / Fold change /veh RGS16 (11720943_a_at) / RFU RGS16 (11720944_at) / Fold change /veh RGS16 (11720944_at) / RFU, VPS4B / Fold change vs veh, VPS4B / RFU, CREB1 / Fold change vs veh, CREB1 / RFU, DNAJC13 / Fold change vs veh, DNAJC13 / RFU, GNAQ / Fold change vs veh, GNAQ / RFU, CDK5R1 / Fold change vs veh, CDK5R1 / RFU, ZRANB3 / Fold change vs veh, ZRANB3 / RFU, CUL4A / Fold change vs veh, CUL4A / RFU, CCNY / Fold change vs veh, CCNY / RFU, UFL1 / Fold change vs veh, UFL1 / RFU, COG3 / Fold change vs veh, COG3 / RFU, DIAPH2 / Fold change vs veh, DIAPH2 / RFU, SKA2 / Fold change vs veh, SKA2 / RFU, AFF3 / Fold change vs veh, AFF3 / RFU, LMF1 / Fold change vs veh, LMF1 / RFU, IPO11 / Fold change vs veh, IPO11 / RFU, DFFB / Fold change vs veh, DFFB / RFU, FOXP1 / Fold change vs veh, FOXP1 / RFU, CARD8 / Fold change vs veh, CARD8 / RFU, STRN3 / Fold change vs veh, STRN3 / RFU, ADK / Fold change vs veh, ADK / RFU, RASSF2 / Fold change vs veh, RASSF2 / RFU, WIPF1 / Fold change vs veh, WIPF1 / RFU, LARP1B / Fold change vs veh, LARP1B / RFU, RASA1 / Fold change vs veh, RASA1 / RFU, RB1 / Fold change vs veh, RB1 / RFU, PPFIA1 / Fold change vs veh, PPFIA1 / RFU, MAT2A / Fold change vs veh, MAT2A / RFU, CCT5 / Fold change vs veh, CCT5 / RFU, WDR92 / Fold change vs veh, WDR92 / RFU, CUX1 / Fold change vs veh, CUX1 / RFU, TTC7A / Fold change vs veh, TTC7A / RFU, TMEM135 / Fold change vs veh, TMEM135 / RFU, DEPTOR / Fold change vs veh, DEPTOR / RFU, CPM / Fold change vs veh, CPM / RFU, DNAJB6 / Fold change vs veh, DNAJB6 / RFU, CACNA2D3 / Fold change vs veh, CACNA2D3 / RFU, DTX4 / Fold change vs veh, DTX4 / RFU, TFCP2 / Fold change vs veh, TFCP2 / RFU, GMCL1 /// GMCL1P1 / Fold change vs veh, GMCL1 /// GMCL1P1 / RFU, AEBP2 / Fold change vs veh, AEBP2 / RFU, SNHG1 /// SNORD22 /// SNORD25 /// SNORD26 /// SNORD27 /// SNORD28 /// SNORD29 /// SNORD31 / Fold change vs veh, SNHG1 /// SNORD22 /// SNORD25 /// SNORD26 /// SNORD27 /// SNORD28 /// SNORD29 /// SNORD31 / Fold change (Aza/veh), C12orf56 (ProbeSet 11735607_a_at) / Fold change (ACY-1035/veh), C12orf56 (ProbeSet 11735607_a_at) / Fold change (Aza/veh), FGFR1OP (ProbeSet 11751329_s_at) / Fold change (ACY-1035/veh), FGFR1OP (ProbeSet 11751329_s_at) / Fold change (Aza/veh), VPS36 (ProbeSet 11739960_a_at) / Fold change (ACY-1035/veh), VPS36 (ProbeSet 11739960_a_at) / RFU SYPL1 (11715823_x_at) / Fold change /veh SYPL1 (11715823_x_at) / RFU IGFBP7 (11715501_s_at) / Fold change /veh IGFBP7 (11715501_s_at) / RFU REEP3 (11722064_at) / Fold change /veh REEP3 (11722064_at) / RFU IGLL1 (11728026_x_at) / Fold change /veh IGLL1 (11728026_x_at): dose or concentration left out as unconfirmed
Details: ProbeSet 11721969_s_at; LIST B

Compound: Nc1ccc(-c2cccs2)cc1NC(=O)c1ccc2c(c1)cc(C1CC1)n2CCN1CCOCC1 [ACY-1035]
- RFU, BDP1: 485.00 RFU
